Laboratory results from patent publication US20060069132A1, “Azolecarboxamide herbicides” (priority 2004, published 2006).

Legend:
[1] = test system: barnyardgrass; experiment: Test C flooded paddy test; assay type: in vivo, Echinochloa crus-galli; settings: for Plant response rating, Barnyardgrass: 500 g ai/ha, visual rating after 12 to 14 days
How it was run: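 Visual rating, 0 (no effect) to 100 (complete control), vs. controls at 12–14 d in greenhouse. Postemergence: 1–4-leaf plants, 2–18 cm. Paddy: flooded, barnyardgrass at 2-leaf stage.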

[2] = test system: large crabgrass; experiment: Test C pre-/postemergence herbicide test; assay type: in vivo, Digitaria sanguinalis
How it was run: (§1)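 Visual ratings on a 0–100 scale (100 = complete control) made versus untreated controls after 12 to 14 greenhouse days. Test chemicals, formulated in surfactant-containing non-phytotoxic solvent, applied preemergence to planted seeds or postemergence to 1- to 4-leaf plants (2 to 18 cm).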

[3] = test system: Surinam grass; experiment: Test B pre-/postemergence herbicide test; assay type: in vivo, Urochloa decumbens
How it was run: (§2)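 Response was scored visually 13 to 15 days after treatment against untreated greenhouse controls, 0 meaning no effect and 100 complete control. Formulations (solvent mixture plus surfactant) went onto soil after planting, onto foliage of 1- to 4-leaf plants, and onto 2-leaf plants in a flooded paddy set including rice and barnyardgrass.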

[4] = test system: morningglory; experiment: Test C pre-/postemergence herbicide test; assay type: in vivo, Ipomoea coccinea; parameters: key to Plant response rating, Morningglory: 0 = no effect, 100 = complete control
How it was run: as §1

[5] = test system: eastern black nightshade; experiment: Test C pre-/postemergence herbicide test; assay type: in vivo, Solanum ptycanthum
How it was run: as §1

[6] = test system: yellow nutsedge; experiment: Test C pre-/postemergence herbicide test; assay type: in vivo, Cyperus esculentus
How it was run: as §1

[7] = test system: rice; experiment: Test B pre-/postemergence herbicide test; assay type: in vivo, Oryza sativa; settings: for Plant response rating, Rice / Rice plant response rating (0 to 100 scale): preemergence
How it was run: as §2

[8] = test system: johnsongrass; experiment: Test C pre-/postemergence herbicide test; assay type: in vivo, Sorghum halepense
How it was run: as §1

[9] = test system: cocklebur; experiment: Test C pre-/postemergence herbicide test; assay type: in vivo, Xanthium strumarium; settings: for Cocklebur plant response rating: Preemergence, 500 g ai/ha, scale 0 to 100, 0 no effect, 100 complete control
How it was run: as §1

[10] = test system: large crabgrass; experiment: Test B pre-/postemergence herbicide test; assay type: in vivo, Digitaria sanguinalis
How it was run: as §2

[11] = 62 g ai/ha, scale 0 to 100 (0 no effect, 100 complete control)
[12] = 250 g ai/ha, scale of 0 to 100, 0 is no effect, 100 is complete control
[13] = scale 0 to 100 (0 no effect, 100 complete control)
[14] = 125 g ai/ha, scale 0 (no effect) to 100 (complete control), visual, 12 to 14 days, preemergence
[15] = 250 g ai/ha, scale 0 to 100 (0 no effect, 100 complete control), visual, 12 to 14 days, preemergence
[16] = Preemergence, 500 g ai/ha, scale 0 to 100, 0 no effect, 100 complete control
[17] = Postemergence, 500 g ai/ha, visual rating after 13 to 15 days, scale 0 (no effect) to 100 (complete control)
[18] = Preemergence, 500 g ai/ha, scale 0 to 100
[19] = postemergence, 125 g ai/ha, visual rating, scale 0 (no effect) to 100 (complete control)
[20] = preemergence, 125 g ai/ha, 0 to 100 scale, 0 is no effect, 100 is complete control
[21] = 125 g ai/ha, scale 0 to 100 (0 no effect, 100 complete control)
[22] = 62 g ai/ha, preemergence, scale 0 to 100
[23] = 250 g ai/ha, scale 0-100, preemergence
[24] = 500 g ai/ha, scale 0 to 100 (0 no effect, 100 complete control), visual, 12 to 14 days, preemergence
[25] = 125 g ai/ha, 0 = no effect, 100 = complete control, preemergence
[26] = 125 g ai/ha, visual rating, scale 0 (no effect) to 100 (complete control), postemergence
[27] = 500 g ai/ha, visual rating, 0 = no effect, 100 = complete control, preemergence
[28] = postemergence, 500 g ai/ha, scale 0 to 100, 0 is no effect, 100 is complete control
[29] = 125 g ai/ha, 0 = no effect, 100 = complete control
[30] = 500 g ai/ha, visual rating, 0 = no effect, 100 = complete control

C=CCn1nc(C(C)(C)C)cc1C(=O)Nc1cccc(C(=O)NCC)c1 [Compound 56]
Barnyardgrass plant response rating [1, 11]: 0 | Barnyardgrass plant response rating ([1]; 125 g ai/ha, scale of 0 to 100, 0 is no effect, 100 is complete control): 20 | Barnyardgrass plant response rating [1, 12]: 65 | Plant response rating, Barnyardgrass [1, 13]: 80 | Plant response rating (0 = no effect, 100 = complete control), Crabgrass, Large ([2]; 62 g ai/ha, preemergence): 95 | Plant response rating, Crabgrass, Large [2, 14]: 100 | Plant response rating, Crabgrass, Large [2, 15]: 100 | Crabgrass, Large plant response rating [2, 16]: 100 | Plant response rating, Surinam Grass [3, 17]: 30 | Surinam Grass plant response rating [3, 18]: 60 | Surinam Grass plant response rating [3, 19]: 20 | Plant response rating, Surinam Grass [3, 20]: 30 | Plant response rating (0 = no effect, 100 = complete control), Morningglory ([4]; 62 g ai/ha, preemergence): 0 | Plant response rating, Morningglory [4, 14]: 0 | Plant response rating, Morningglory [4, 15]: 55 | Morningglory plant response rating [4, 16]: 55 | Plant response rating (0 = no effect, 100 = complete control), Nightshade ([5]; 62 g ai/ha, preemergence): 90 | Plant response rating, Nightshade [5, 14]: 95 | Plant response rating, Nightshade [5, 15]: 95 | Nightshade plant response rating [5, 16]: 95 | Plant response rating (0 = no effect, 100 = complete control), Nutsedge, Yellow ([6]; 62 g ai/ha, preemergence): 0 | Plant response rating, Nutsedge, Yellow [6, 14]: 0 | Plant response rating, Nutsedge, Yellow [6, 15]: 0 | Nutsedge, Yellow plant response rating [6, 16]: 20 | Rice plant response rating [7, 18]: 70 | Plant response rating, Rice ([7]; 125 g ai/ha, 0 to 100 scale, 0 is no effect, 100 is complete control): 40 | Plant response rating (0 = no effect, 100 = complete control), Johnsongrass ([8]; 62 g ai/ha, preemergence): 55 | Plant response rating, Johnsongrass [8, 14]: 70 | Plant response rating, Johnsongrass [8, 15]: 85 | Johnsongrass plant response rating [8, 16]: 90 | Plant response rating (0 = no effect, 100 = complete control), Cocklebur ([9]; 62 g ai/ha, preemergence): 0 | Plant response rating, Cocklebur [9, 14]: 0 | Cocklebur plant response rating [9]: 0 | Plant response rating, Crabgrass, Large [10, 17]: 20 | Crabgrass, Large plant response rating [10, 18]: 100 | Crabgrass, Large plant response rating [10, 19]: 10 | Plant response rating, Crabgrass, Large [10, 20]: 70

CCn1nc(C2(C)CC2)cc1C(=O)Nc1cc(C(=O)N2CC=CC2)ccc1F [Compound 301]
Barnyardgrass plant response rating [1, 11]: 50 | Barnyardgrass plant response rating [1, 21]: 75 | Barnyardgrass plant response rating [1, 12]: 90 | Plant response rating, Barnyardgrass [1, 13]: 95 | Plant response rating, Crabgrass, Large [2, 22]: 90 | Plant response rating, Crabgrass, Large [2, 14]: 100 | Plant response rating, Crabgrass, Large [2, 23]: 100 | Plant response rating, Crabgrass, Large [2, 24]: 100 | Surinam Grass plant response rating (0 to 100 scale) [3, 25]: 90 | Surinam Grass plant response rating [3, 26]: 10 | Plant response rating, Surinam Grass [3, 27]: 100 | Surinam Grass plant response rating [3, 28]: 30 | Plant response rating, Morningglory [4, 22]: 5 | Plant response rating, Morningglory [4, 14]: 5 | Plant response rating, Morningglory [4, 23]: 10 | Plant response rating, Morningglory [4, 24]: 60 | Plant response rating, Nightshade [5, 22]: 90 | Plant response rating, Nightshade [5, 14]: 95 | Plant response rating, Nightshade [5, 23]: 100 | Plant response rating, Nightshade [5, 24]: 100 | Plant response rating, Nutsedge, Yellow [6, 22]: 0 | Plant response rating, Nutsedge, Yellow [6, 14]: 5 | Plant response rating, Nutsedge, Yellow [6, 23]: 10 | Plant response rating, Nutsedge, Yellow [6, 24]: 20 | Rice plant response rating (0 to 100 scale) [7, 29]: 10 | Plant response rating, Rice [7, 30]: 70 | Plant response rating, Johnsongrass [8, 22]: 30 | Plant response rating, Johnsongrass [8, 23]: 85 | Plant response rating, Johnsongrass [8, 24]: 95 | Plant response rating, Cocklebur [9, 22]: 0 | Plant response rating, Cocklebur [9, 14]: 0 | Plant response rating, Cocklebur [9, 23]: 0 | Cocklebur plant response rating [9]: 60 | Crabgrass, Large plant response rating (0 to 100 scale) [10, 25]: 100 | Crabgrass, Large plant response rating [10, 26]: 20 | Plant response rating, Crabgrass, Large [10, 27]: 100 | Crabgrass, Large plant response rating [10, 28]: 60

CCN1N=C(C(C)(C)C)CC1C(=O)Nc1cc(C(=O)N2CC=CC2)ccc1F (racemic) [Compound 310]
Barnyardgrass plant response rating [1, 11]: 35 | Barnyardgrass plant response rating [1, 21]: 50 | Barnyardgrass plant response rating [1, 12]: 70 | Plant response rating, Barnyardgrass [1, 13]: 90 | Plant response rating, Crabgrass, Large [2, 22]: 30 | Plant response rating, Crabgrass, Large [2, 14]: 70 | Plant response rating, Crabgrass, Large [2, 23]: 100 | Plant response rating, Crabgrass, Large [2, 24]: 100 | Surinam Grass plant response rating (0 to 100 scale) [3, 25]: 30 | Surinam Grass plant response rating [3, 26]: 10 | Plant response rating, Surinam Grass [3, 27]: 70 | Surinam Grass plant response rating [3, 28]: 20 | Plant response rating, Morningglory [4, 22]: 0 | Plant response rating, Morningglory [4, 14]: 5 | Plant response rating, Morningglory [4, 23]: 5 | Plant response rating, Morningglory [4, 24]: 10 | Plant response rating, Nightshade [5, 22]: 30 | Plant response rating, Nightshade [5, 14]: 35 | Plant response rating, Nightshade [5, 23]: 100 | Plant response rating, Nightshade [5, 24]: 100 | Plant response rating, Nutsedge, Yellow [6, 22]: 0 | Plant response rating, Nutsedge, Yellow [6, 14]: 0 | Plant response rating, Nutsedge, Yellow [6, 23]: 0 | Plant response rating, Nutsedge, Yellow [6, 24]: 15 | Rice plant response rating (0 to 100 scale) [7, 29]: 40 | Plant response rating, Rice [7, 30]: 80 | Plant response rating, Johnsongrass [8, 22]: 0 | Plant response rating, Johnsongrass [8, 14]: 10 | Plant response rating, Johnsongrass [8, 23]: 20 | Plant response rating, Johnsongrass [8, 24]: 80 | Plant response rating, Cocklebur [9, 22]: 0 | Plant response rating, Cocklebur [9, 14]: 0 | Plant response rating, Cocklebur [9, 23]: 5 | Cocklebur plant response rating [9]: 30 | Crabgrass, Large plant response rating (0 to 100 scale) [10, 25]: 90 | Crabgrass, Large plant response rating [10, 26]: 10 | Plant response rating, Crabgrass, Large [10, 27]: 100 | Crabgrass, Large plant response rating [10, 28]: 30
